From patent publication US20220193209A1, “COMPOSITIONS AND METHODS FOR REACTIVATING LATENT IMMUNODEFICIENCY VIRUS AND/OR TREATING IMMUNODEFICIENCY VIRUS INFECTION” (The J. David Gladstone institutes, a testamentary trust …, priority 2019, published 2022) come the findings set out here.

Experiment [1] relates to latent HIVNL4-3 Luciferase reporter virus in primary CD4+ T cells. Briefly: Luciferase reporter HIV reactivation in primary CD4+ T cells. Format: cell-based, HIV-1. The note with it: 6 days after infection, increasing concentrations.
Description: For reactivation of latent HIV-1 provirus, cells were counted and collected as pellets by centrifugation at 1500 rpm for 10 min. Cells were then plated in 96-well U-bottom plates at 1×10^6 per 200 μl in the presence of 30 μM Raltegravir (Santa Cruz Biotechnology) and the indicated activator. Cells were harvested 48 h after stimulation, washed one time with PBS, and lysed in 60 μl of Passive Lysis Buffer (Promega). After 15 min of lysis, the luciferase activity in cell extracts was quantified with a Perkin Elmer EnSpire 2300 Multimode plate reader after mixing 20 μl of lysate with 100 μl of substrate (Luciferase Assay System-Promega). Relative light units (RLU) were normalized to protein content determined by Bradford assay (BioRad). Data represent average (±SD) of three technical replicates per donor. Cell viability was measured with CellTiter-Blue Cell Viability Assay (Promega).
HIV reactivation was measured by luciferase activity and cell viability by flow cytometry.
The subject of experiment [2] is latent HIV-1 provirus in J-Lat cells. Briefly: HIV-GFP reactivation in J-Lat cell lines (RT-qPCR, FACS). It counts as cell-based. The protocol: Total RNA from samples was extracted using the Direct-zol RNA kit (R2060; Zymogen). cDNA was generated using 500 ng for CD4^+ T cells or 1000 ng of total RNA for J-Lats with Superscript III Reverse transcription (18080-044; ThermoFisher) and oligo(dT) (18418-012; ThermoFisher). Quantitative RT-PCR was carried out using Maxima SYBR Green qPCR Master Mix (Thermo Scientific) on SDS 2.4 software (Applied Biosystems) in a total volume of 12 μL. The SYBR green qPCR reactions contained 5 μl of 2× Maxima SYBR green/Rox qPCR Master Mix (K0221; ThermoFisher), 5 μl of diluted cDNA, and 1 nmol of both forward and reverse primers. The reactions were run using the following conditions: 50° C. for 2 min and 95° C. for 10 min, followed by 40 cycles of 95° C. for 5 s and 62° C. for 30 s. See Table 1 below for a qRT-PCR primer list. […] Dissociation curve analysis was performed after the end of the PCR to confirm the presence of a single and specific product. All qPCRs were independently repeated at least three times, averaged and compared using standard deviation (±SD).
The J-Lat clonal cell lines are Jurkat cells that contain a stably integrated, latent HIV-1 (HXB) Δenv provirus with a GFP reporter gene in place of the nef gene (Jordan, A. et al. EMBO J. 22, 1868-1877 (2003)). In this system, reactivation from established latency can be monitored through GFP expression.
HIV-GFP mRNA reactivation was assessed by RT-qPCR and normalized to RPL13A mRNA. Data represent average SD of three independent experiments. p-value relative to the control at each time point. FIG. 3, Panel B, depicts cell viability assessed by flow cytometry at 72 h of the same experiment as in A. Cell viability was measured by gating on both the live population at the forward scatter (FSC) and side scatter (SSC) plot and then the viable cells after staining with the viability dye. […] HIV-GFP reactivation (bars) and cell viability (dots) were analyzed by FACS. HIV-GFP reactivation is reported as a percentage of GFP-expressing cells (% GFP+ cells). Data represent average f SD of at least three independent experiments. FIG. 3, Panel D, depicts the same experiments as in FIG. 3, Panel C, but performed in different J-Lat cell lines 5A8, 6.3, 11.1 and 15.4. Data represent average f SD of at least three independent experiments. 10 ng/mL TNFα was used as control. […] Calculation of synergy for drug combinations using the Bliss independence model applied to the HIV-GFP reactivation measured as a percentage of GFP-expressing cells (% GFP+ cells).
Chromatin was prepared from J-Lat A2 and 5A8 cells, in which the LTR was stimulated by 1000 nM AS1842856 treatment, TNFα or which were left untreated/DMSO. […] HIV-GFP reactivation was analyzed by FACS and relativized to the control condition. […] Data represent average SD of 3-6 independent experiments. […] HIV-GFP reactivation was analyzed by FACS. […] HIV-GFP reactivation and cell viability were analyzed by FACS. Data were mean±SD of three independent experiments.

A further experiment has as its system ATF4. Description: Western blot of ATF4 protein in CD4+ T cells. The note with it: multiple donors. It counts as cell-based, human. The protocol: Cells were lysed in radioimmunoprecipitation assay buffer (50 mM Tris-HCl, pH 8, 150 mM NaCl, 1% NP-40, 0.5% sodium deoxycholate, and 0.1% SDS, supplemented with protease inhibitor cocktail; Sigma-Aldrich) for 30 min at 4° C. Samples were resuspended in Laemmli buffer for SDS-PAGE. For chemiluminescent detection, enhanced luminol-based chemiluminescent substrate (ECL) and ECL Hyperfilm (Amersham) were used.
The RNA-Seq results were validated by measuring read counts of the selected genes representative of different pathways (FIG. 8, Panel D) as well as by Real-Time Quantitative PCR (RT-qPCR) (FIG. 7, Panel C). […] Upstream regulator analysis identified TRIB3 and ATF4 as the top regulators of AS1842856-induced gene changes (FIG. 7, Panel D).
FIG. 7, Panels A-E, depict marked upregulation of the regulator ATF4 in response to FOXO1 inhibition in primary CD4^+ T cells. FIG. 7, Panel A depicts a volcano plot from the RNA-Seq data comparing CD4^+ T cells treated with 1000 nM AS1842856 versus DMSO control for 48 h. […] FIG. 7, Panel D, depicts analysis of the five top upstream regulators and table with their activation z-scores according to the RNA-Seq data. FIG. 7, Panel E depicts a representative blot of protein expression of dysregulated genes of interest (left) and densitometry analysis (right) was performed from three individual donors.

With `CCn1cc(C(=O)O)c(=O)c2c(N)c(F)c(NC3CCCCC3)cc21` [AS1842856, 5-amino-7-(cyclohexylamino)-1-ethyl-6-fluoro-4-oxo-1,4-dihydro-quinoline-3-carboxylic acid], the “luciferase expression (HIV reactivation)” value in experiment [1] is listed as “reactivated luciferase expression”. In addition, the “HIV-driven GFP expression (flow cytometry)” value in experiment [2] (J-Lat A2 cells (contain Tat)) and in experiment [2] (J-Lat A72 cells (no Tat)) was “increased GFP expression” each time. Further, the “HIV reactivation (percentage of GFP+ cells, median fluorescence intensity)” value in experiment [2] (four J-Lat clonal cell lines, 72 hours) is on record as “reactivated HIV in each cell line”. The ATF4 protein levels entry with ATF4 was “increased expression”.
